Laboratory results: PMC4432287, “NsrR from Streptomyces coelicolor Is a Nitric Oxide-sensing [4Fe-4S] Cluster Protein with a Specialized Regulatory Function” (The Journal of Biological Chemistry, 2015)

Target: T1, ScNsrR ([4Fe-4S] NsrR) (Streptomyces coelicolor, UniProt Q9L132)
T1 construct: untagged native full-length protein from pNsrR, E. coli BL21λDE3, anaerobic heparin purification, homodimer (~37 kDa by gel filtration); C-terminal His6 form (apo 17,474 Da) used for native MS
Test: CD titration at […] nm, single-site fit
Format: binding

T1 sequence (Q9L132 whole entry): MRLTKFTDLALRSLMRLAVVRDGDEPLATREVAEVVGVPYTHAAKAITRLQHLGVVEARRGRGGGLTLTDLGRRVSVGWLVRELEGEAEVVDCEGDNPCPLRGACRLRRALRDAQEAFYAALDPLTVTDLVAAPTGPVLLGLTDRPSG

| Compound | Kd [mM] |
| --- | --- |
| OC(CS)C(O)CS (stereo not drawn) [dithiothreitol] | 9.9 |
| CCS [thioethane] | ~1.9 |
| OCCS [β-mercaptoethanol] | ~3.8 |
